Biological target: T1, histone acetyltransferase p300 (Homo sapiens, UniProt Q09472)
T1 construct: purchased BPS Corporation 50071
T1 sequence (Q09472 1284-1673 limits assumed): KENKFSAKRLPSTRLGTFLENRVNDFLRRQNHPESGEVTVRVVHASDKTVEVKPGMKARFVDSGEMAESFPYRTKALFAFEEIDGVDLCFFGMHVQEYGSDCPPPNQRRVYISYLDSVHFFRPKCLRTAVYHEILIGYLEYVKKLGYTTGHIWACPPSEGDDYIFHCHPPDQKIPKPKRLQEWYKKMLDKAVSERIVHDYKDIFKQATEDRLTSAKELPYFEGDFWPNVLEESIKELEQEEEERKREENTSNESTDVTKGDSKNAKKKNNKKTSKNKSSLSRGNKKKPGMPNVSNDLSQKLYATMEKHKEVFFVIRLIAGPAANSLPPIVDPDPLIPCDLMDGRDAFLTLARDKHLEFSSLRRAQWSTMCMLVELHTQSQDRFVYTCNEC
Assay: Histone acetyltransferase (p300) activity assay (radioisotope, [3H]-Ac-CoA)
Format: biochemical
Details: p300 0.05 nM; histone peptide 600 nM, [3H]-Ac-CoA 250 nM; 60 min at room temperature; read-out: Inhibition rate IC50
Method: The reaction was finally terminated with Ac-CoA (Sigma, Cat. No. A2056) without isotope labeling. If the activity of the acetyltransferase p300 was inhibited, the isotope signal cannot be detected on the substrate polypeptide. Therefore, the inhibitory activity of the compound against the acetyltransferase p300 was evaluated.
In the enzyme reaction system, 200 nL of a diluted compound (100% DMSO) was first transferred to a test plate using Echo, where the final concentration of the compound in the enzyme reaction system ranges from 0.25 to 5000 nM. Then 10 μL/well of p300 protein (final concentration of 0.05 nM) was transferred therein, and incubated with the compound for 15 min at room temperature. Then 10 μL/well of a substrate mixture (final concentrations of histone peptide and [^3H]—Ac-CoA were 600 nM and 250 nM, respectively) was added to start the enzyme-catalyzed reaction, and incubated at room temperature for 60 min. Then 10 µL/well of a 250 μM cold Ac-CoA solution was added to stop the reaction. Finally 25 μL/well of the reaction solution was transferred to a 384-well Flashplate (Perkin Elmer, Cat. No. SMP410A001PK), and incubated at room temperature for 1 h. The resultant was washed with double distilled water+0.1% Tween-20 three times. The signal value was read by using Microbeta. The data was analyzed by using GraphPad Prism 5.0 software to obtain IC50.

Row | SMILES | IC50 [nM]
1 | CNC(=O)Nc1ccc2c(c1)CC[C@]21OC(=O)N(CC(=O)N2Cc3ccccc3CC[C@@H]2C2CC2)C1=O [SYY-B017-1] | 640
2 | CNC(=O)Nc1ccc2c(c1)CC[C@@]21OC(=O)N(CC(=O)N2Cc3ccccc3CC[C@@H]2C2CC2)C1=O [SYY-B017-2] | 270
3 | CNC(=O)Nc1ccc2c(c1)CC[C@]21OC(=O)N(CC(=O)N2Cc3ccccc3CC[C@@H]2C(C)C)C1=O [SYY-B020-1] | 200
4 | CNC(=O)Nc1ccc2c(c1)CC[C@@]21OC(=O)N(CC(=O)N2Cc3ccccc3CC[C@@H]2C(C)C)C1=O [SYY-B020-2] | 45
5 | CNC(=O)Nc1ccc2c(c1)CC[C@]21OC(=O)N(CC(=O)N2Cc3ccc(F)cc3CC[C@@H]2C)C1=O [SYY-B022-1] | 54
6 | CNC(=O)Nc1ccc2c(c1)CC[C@@]21OC(=O)N(CC(=O)N2Cc3ccc(F)cc3CC[C@@H]2C)C1=O [SYY-B022-2] | 12
7 | CCC[C@H]1CCc2ccccc2CN1C(=O)CN1C(=O)O[C@]2(CCc3cc(NC(=O)NC)ccc32)C1=O [SYY-B024-1] | 47
8 | CNC(=O)Nc1ccc2c(c1)CC[C@]21OC(=O)N(CC(=O)N2Cc3ccc(F)cc3CC[C@@H]2C2CC2)C1=O [SYY-B026-1] | 22
9 | CNC(=O)Nc1ccc2c(c1)CC[C@]21OC(=O)N(CC(=O)N2Cc3ccccc3CC[C@@H]2C(F)(F)F)C1=O [SYY-B028-1] | 1100
10 | CNC(=O)Nc1ccc2c(c1)CC[C@@]21OC(=O)N(CC(=O)N2Cc3ccccc3CC[C@@H]2C(F)(F)F)C1=O [SYY-B028-2] | 55
11 | CNC(=O)Nc1ccc2c(c1)CC[C@]21OC(=O)N(CC(=O)N2Cc3cc(F)ccc3OC[C@@H]2C2CC2)C1=O [SYY-B030-1] | 230
12 | CNC(=O)Nc1ccc2c(c1)CC[C@@]21OC(=O)N(CC(=O)N2Cc3cc(F)ccc3OC[C@@H]2C2CC2)C1=O [SYY-B030-2] | 230
13 | CNC(=O)Nc1ccc2c(c1)CC[C@@]21OC(=O)N(CC(=O)N2Cc3ccc(F)cc3CC[C@@H]2C(F)(F)F)C1=O [SYY-B032-2] | 37
14 | CNC(=O)Nc1ccc2c(c1)CCC21NC(=O)N(CC(=O)N2Cc3ccc(F)cc3CC[C@@H]2C2CC2)C1=O (some centres unmarked) [SYY-B034] | > 100
15 | NC1(C(=O)Nc2ccc3c(c2)CC[C@]32OC(=O)N(CC(=O)N3Cc4ccc(F)cc4CC[C@@H]3C3CC3)C2=O)CC1 [SYY-B036-1] | 180
16 | NC1(C(=O)Nc2ccc3c(c2)CC[C@@]32OC(=O)N(CC(=O)N3Cc4ccc(F)cc4CC[C@@H]3C3CC3)C2=O)CC1 [SYY-B036-2] | 1500
17 | CC(C)(N)C(=O)Nc1ccc2c(c1)CC[C@]21OC(=O)N(CC(=O)N2Cc3ccc(F)cc3CC[C@@H]2C2CC2)C1=O [SYY-B037-2] | > 100
18 | CC(C)(N)C(=O)Nc1ccc2c(c1)CC[C@@]21OC(=O)N(CC(=O)N2Cc3ccc(F)cc3CC[C@@H]2C2CC2)C1=O [SYY-B038-2] | > 100
19 | NC1(C(=O)Nc2ccc3c(c2)CC[C@]32OC(=O)N(CC(=O)N3Cc4ccc(F)cc4CC[C@@H]3C3CC3)C2=O)CCC1 [SYY-B040-1] | 130
20 | NC1(C(=O)Nc2ccc3c(c2)CC[C@@]32OC(=O)N(CC(=O)N3Cc4ccc(F)cc4CC[C@@H]3C3CC3)C2=O)CCC1 [SYY-B040-2] | 160
21 | Cn1cc(-c2ccc3c(c2)CCC32NC(=O)N(CC(=O)N3Cc4ccc(F)cc4CC[C@@H]3C3CC3)C2=O)cn1 (some centres unmarked) [SYY-B044] | > 50
22 | CNC(=O)Cn1cc(-c2ccc3c(c2)CCC32NC(=O)N(CC(=O)N3Cc4ccc(F)cc4CC[C@@H]3C3CC3)C2=O)cn1 (some centres unmarked) [SYY-B046] | > 50
23 | CNC(=O)Nc1ccc2c(c1)CC[C@]21OC(=O)N(CC(=O)N2Cc3cc(F)ccc3OC[C@H]2C(F)(F)F)C1=O [SYY-B057-1] | 8.9

Second part, the molecule after the results:

Row | IC50 [nM] | SMILES
24 | < 200 | CNC(=O)Nc1ccc2c(c1)CC[C@]21OC(=O)N(CC(=O)N2Cc3cccnc3CC[C@H]2C2CC2)C1=O [SYY-B081-1]
25 | 6.8 | CNC(=O)Nc1ccc2c(c1)CC[C@@]21OC(=O)N(CC(=O)N2Cc3cccnc3CC[C@H]2C2CC2)C1=O [SYY-B081-2]
26 | < 10 | CNC(=O)Nc1ccc2c(c1)CCC21NC(=O)N(CC(=O)N2Cc3cc(F)c(F)cc3CC[C@H]2C2CC2)C1=O (some centres unmarked) [SYY-B088]
27 | 1.37 | CNC(=O)Nc1ccc2c(c1)CC[C@]21OC(=O)N(CC(=O)N2Cc3cc(F)c(F)cc3CC[C@H]2C2CC2)C1=O [SYY-B090-1]
28 | 1.58 | CNC(=O)Nc1ccc2c(c1)CC[C@@]21OC(=O)N(CC(=O)N2Cc3cc(F)c(F)cc3CC[C@H]2C2CC2)C1=O [SYY-B090-2]
29 | < 100 | Cn1cc(-c2ccc3c(c2)CCCC32OC(=O)N(CC(=O)N3Cc4cc(F)ccc4OC[C@H]3C3CC3)C2=O)cn1 (some centres unmarked) [SYY-B094]
30 | 11.7 | CNC(=O)Nc1ccc2c(c1)CC[C@]21OC(=O)N(CC(=O)N2Cc3ncccc3CC[C@H]2C2CC2)C1=O [SYY-B095-1]
31 | 7.4 | CNC(=O)Nc1ccc2c(c1)CC[C@@]21OC(=O)N(CC(=O)N2Cc3ncccc3CC[C@H]2C2CC2)C1=O [SYY-B096-2]
32 | 42.3 | CNC(=O)Nc1ccc2c(c1)CC[C@]21OC(=O)N(CC(=O)N2Cc3ccncc3CC[C@H]2C2CC2)C1=O [SYY-B097-1]
33 | 4 | CNC(=O)Nc1ccc2c(c1)CC[C@@]21OC(=O)N(CC(=O)N2Cc3ccncc3CC[C@H]2C2CC2)C1=O [SYY-B097-2]
34 | 20.6 | CNC(=O)Nc1ccc2c(c1)CC[C@]21OC(=O)N(CC(=O)N2Cc3sccc3OC[C@H]2C2CC2)C1=O [SYY-B100-1]
35 | 16.8 | CNC(=O)Nc1ccc2c(c1)CC[C@@]21OC(=O)N(CC(=O)N2Cc3sccc3OC[C@H]2C2CC2)C1=O [SYY-B100-2]
36 | 13.9 | CNC(=O)Nc1ccc2c(c1)CC[C@]21OC(=O)N(CC(=O)N2Cc3ccsc3CC[C@H]2C2CC2)C1=O [SYY-B102-1]
37 | 0.55 | CNC(=O)Nc1ccc2c(c1)CC[C@@]21OC(=O)N(CC(=O)N2Cc3ccsc3CC[C@H]2C2CC2)C1=O [SYY-B102-2]
38 | < 20 | CNC(=O)Nc1ccc2c(c1)CCC21NC(=O)N(CC(=O)N2Cc3ccsc3CC[C@H]2C2CC2)C1=O (some centres unmarked) [SYY-B104]
39 | < 20 | CNC(=O)Nc1ccc2c(c1)COCC21NC(=O)N(CC(=O)N2Cc3cc(F)ccc3OC[C@H]2C2CC2)C1=O (some centres unmarked) [SYY-B106]
40 | < 50 | CNC(=O)Nc1ccc2c(c1)CCC21NC(=O)N(CC(=O)N2Cc3sccc3OC[C@H]2C2CC2)C1=O (some centres unmarked) [SYY-B108]

Row | IC50 [nM] | SMILES
41 | < 10 | Cn1cc(-c2ccc3c(c2)OCC32NC(=O)N(CC(=O)N3Cc4cc(F)ccc4OC[C@H]3C3CC3)C2=O)cn1 (some centres unmarked) [SYY-B110]
42 | < 10 | CNC(=O)Nc1ccc2c(c1)COCC21OC(=O)N(CC(=O)N2Cc3cc(F)ccc3OC[C@H]2C2CC2)C1=O (some centres unmarked) [SYY-B112]
43 | 140 | CNC(=O)Nc1ccc2c(c1)CC[C@]21OC(=O)N(CC(=O)N2Cc3sc(C)c(C)c3CC[C@H]2C2CC2)C1=O [SYY-B116-1]
44 | 2 | CNC(=O)Nc1ccc2c(c1)CC[C@@]21OC(=O)N(CC(=O)N2Cc3sc(C)c(C)c3CC[C@H]2C2CC2)C1=O [SYY-B116-2]
45 | 6.6 | CNC(=O)Nc1ccc2c(c1)CC[C@@]21OC(=O)N(CC(=O)N2Cc3sc(C)c(C)c3OC[C@H]2C2CC2)C1=O [SYY-B118-2]
46 | < 10 | CNC(=O)Nc1ccc2c(c1)CCC21NC(=O)N(CC(=O)N2Cc3ccsc3OC[C@H]2C2CC2)C1=O (some centres unmarked) [SYY-B122]
47 | < 20 | CNC(=O)Nc1ccc2c(c1)CCC21NC(=O)N(CC(=O)N2Cc3sccc3CC[C@H]2C2CC2)C1=O (some centres unmarked) [SYY-B124]
48 | 0.5 | CNC(=O)Nc1ccc2c(c1)CC[C@@]21OC(=O)N(CC(=O)N2Cc3sccc3CC[C@H]2C2CC2)C1=O [SYY-B126-2]
49 | < 10 | Cn1cc(-c2ccc3c(c2)S(=O)(=O)C[C@]32NC(=O)N(CC(=O)N3Cc4cc(F)ccc4OC[C@H]3C(F)(F)F)C2=O)cn1 [SYY-B130]
50 | < 10 | Cn1cc(-c2ccc3c(c2)C(F)C[C@]32NC(=O)N(CC(=O)N3Cc4cc(F)ccc4OC[C@H]3C3CC3)C2=O)cn1 (some centres unmarked) [SYY-B132-2]
51 | < 10 | CNC(=O)Nc1ccc2c(c1)CC[C@]21OC(=O)N(CC(=O)N2Cc3cnccc3CC[C@H]2C2CC2)C1=O [SYY-B136-1]
52 | < 10 | CNC(=O)Nc1ccc2c(c1)CC[C@@]21OC(=O)N(CC(=O)N2Cc3cnccc3CC[C@H]2C2CC2)C1=O [SYY-B136-2]
53 | 7 | CNC(=O)Nc1ccc2c(c1)CC[C@@]21OC(=O)N(CC(=O)N2Cc3sccc3OC[C@H]2C(F)(F)F)C1=O [SYY-B140-2]
54 | < 50 | CNC(=O)Nc1ccc2c(c1)CCC21NC(=O)N(CC(=O)N2Cc3sccc3OC[C@H]2C(F)(F)F)C1=O (some centres unmarked) [SYY-B142]
55 | < 50 | Cn1cc(-c2ccc3c(c2)CCC32OC(=O)N(CC(=O)N3Cc4sccc4OC[C@H]3C(F)(F)F)C2=O)cn1 (some centres unmarked) [SYY-B144]
56 | < 30 | CNC(=O)Nc1ccc2c(c1)OCC21NC(=O)N(CC(=O)N2Cc3cc(F)ccc3OC[C@H]2C2CC2)C1=O (some centres unmarked) [SYY-B156]
